Consider two molecules from PMC7191050 (Molecules and Cells, 2020).

Holding throughout (format): binding
Test [1] has as its target T1, Ca IleRS (isoleucyl-tRNA synthetase) (Candida albicans, UniProt Q59RI1).
T1 sequence (Q59RI1 1-1088): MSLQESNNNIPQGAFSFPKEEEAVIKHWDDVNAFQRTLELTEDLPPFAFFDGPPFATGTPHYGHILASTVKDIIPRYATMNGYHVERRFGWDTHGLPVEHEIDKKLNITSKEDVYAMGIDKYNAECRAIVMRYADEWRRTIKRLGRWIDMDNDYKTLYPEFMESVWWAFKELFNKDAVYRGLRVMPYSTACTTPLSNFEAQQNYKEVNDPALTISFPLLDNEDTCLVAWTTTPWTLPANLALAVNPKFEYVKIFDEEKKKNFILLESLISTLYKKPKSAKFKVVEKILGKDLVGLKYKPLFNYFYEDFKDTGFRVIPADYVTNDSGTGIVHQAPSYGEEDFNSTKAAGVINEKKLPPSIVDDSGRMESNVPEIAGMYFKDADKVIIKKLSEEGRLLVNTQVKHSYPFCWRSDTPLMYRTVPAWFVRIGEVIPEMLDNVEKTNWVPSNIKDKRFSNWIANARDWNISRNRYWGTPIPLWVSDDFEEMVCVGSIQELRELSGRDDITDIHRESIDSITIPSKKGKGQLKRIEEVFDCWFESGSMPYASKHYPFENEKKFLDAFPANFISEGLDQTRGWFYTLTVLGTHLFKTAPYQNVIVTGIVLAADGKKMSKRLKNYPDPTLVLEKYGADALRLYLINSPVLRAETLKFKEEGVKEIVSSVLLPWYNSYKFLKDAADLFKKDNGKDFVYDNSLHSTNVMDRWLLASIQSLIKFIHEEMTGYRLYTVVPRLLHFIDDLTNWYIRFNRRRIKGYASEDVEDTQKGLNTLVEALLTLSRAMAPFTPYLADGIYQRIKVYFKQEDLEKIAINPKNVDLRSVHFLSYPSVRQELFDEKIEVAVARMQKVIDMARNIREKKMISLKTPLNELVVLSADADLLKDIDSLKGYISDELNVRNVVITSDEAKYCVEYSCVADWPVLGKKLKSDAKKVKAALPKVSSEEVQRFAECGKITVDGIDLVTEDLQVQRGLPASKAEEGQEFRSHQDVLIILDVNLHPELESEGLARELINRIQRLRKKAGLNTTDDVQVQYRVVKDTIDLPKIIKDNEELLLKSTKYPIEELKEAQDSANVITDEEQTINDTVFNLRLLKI
Nature of the test: microscale thermophoresis. On the technique in general: Microscale thermophoresis detects binding through changes in fluorescence in a small temperature gradient.

Test [2] deals with T2, Ca IleRS mutant (isoleucyl-tRNA synthetase) (Candida albicans, UniProt Q59RI1, I601F/T599H).
T2 sequence (Q59RI1 1-1088 T599H/I601F): T1 sequence (Q59RI1 1-1088)
Nature of the test: microscale thermophoresis.

The target of test [3] is T3, Ca IleRS (isoleucyl-tRNA synthetase) (Candida albicans, UniProt Q59RI1).
T3 sequence (Q59RI1 1-856): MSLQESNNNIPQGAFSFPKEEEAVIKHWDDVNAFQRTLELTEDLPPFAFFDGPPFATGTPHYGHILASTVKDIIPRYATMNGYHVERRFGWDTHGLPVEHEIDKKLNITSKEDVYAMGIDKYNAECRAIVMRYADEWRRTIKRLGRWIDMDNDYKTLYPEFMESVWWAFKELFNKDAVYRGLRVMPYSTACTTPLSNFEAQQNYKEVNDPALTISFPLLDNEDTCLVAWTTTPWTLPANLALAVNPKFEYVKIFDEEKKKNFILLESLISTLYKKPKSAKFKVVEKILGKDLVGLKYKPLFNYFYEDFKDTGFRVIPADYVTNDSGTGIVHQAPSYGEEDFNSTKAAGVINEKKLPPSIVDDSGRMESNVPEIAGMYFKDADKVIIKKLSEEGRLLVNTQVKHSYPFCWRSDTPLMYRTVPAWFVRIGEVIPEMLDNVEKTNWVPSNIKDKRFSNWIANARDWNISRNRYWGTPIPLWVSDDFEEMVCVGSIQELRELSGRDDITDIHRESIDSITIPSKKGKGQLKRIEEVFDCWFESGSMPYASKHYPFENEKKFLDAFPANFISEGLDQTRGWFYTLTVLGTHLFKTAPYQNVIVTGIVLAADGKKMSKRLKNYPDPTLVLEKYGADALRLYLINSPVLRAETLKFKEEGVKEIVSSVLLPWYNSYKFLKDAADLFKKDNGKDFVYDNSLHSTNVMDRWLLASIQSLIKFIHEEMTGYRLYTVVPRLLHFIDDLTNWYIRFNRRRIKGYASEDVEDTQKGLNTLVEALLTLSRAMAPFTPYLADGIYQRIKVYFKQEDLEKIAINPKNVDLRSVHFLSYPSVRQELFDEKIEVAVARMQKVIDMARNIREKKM
Nature of the test: X-ray crystal structure at […] Å.

With `C/C(=C\C(=O)OCCCCCCCCC(=O)O)C[C@@H]1OC[C@H](C[C@@H]2O[C@H]2[C@@H](C)[C@H](C)O)[C@@H](O)[C@H]1O` [mupirocin], the Kd in test [1] and in test [2] was 103 to 111 µM throughout.

As for `CC[C@H](C)[C@H](N)C(=O)OP(=O)(O)OC[C@H]1O[C@@H](n2cnc3c(N)ncnc32)[C@H](O)[C@@H]1O` [Ile-AMP], in test [3], the “X-ray crystal structure at 2.9 Å (ligand co-purified, none added)” value was “The crystal structure of Ca IleRS revealed clear electron density for Ile-AMP at the synthetic active site”.
